# What was measured:
# [1] = Rat administration test, urinary excretion; details: for Detection in rat urine (LC–QToF–MS): urine 0–72 h, n = 3; for Detection in rat urine (LC–QToF–MS) / M1–D1 absolute amount in urine after hydrolysis / M1–D1 concentration in urine after hydrolysis / M1–D1 concentration in urine before hydrolysis / M1–D2 absolute amount in urine after hydrolysis / M1–D2 concentration in urine after hydrolysis / M1–D2 concentration in urine before hydrolysis: BocMA 20 mg/kg i.p.
# [2] = Microsomal metabolism test, human liver microsomes; details: for Detection after incubation of BocMA (LC–QToF–MS): HLM incubation of BocMA; for Share of the degraded products detected as this metabolite: HLM, first 8 min
# [3] = Microsomal metabolism test, rat liver microsomes; details: for Detection after incubation of BocMA (LC–QToF–MS): RLM incubation of BocMA; for Incubation time at which peak intensity was highest: RLM test; for Share of the degraded products detected as this metabolite: RLM, first 3 min
# [4] = within 3–4 days; cited from earlier work
compound,measurement,setting,value
"CC(Cc1ccccc1)NC(=O)OC(C)(C)C (centres unmarked) [M2, N-tert-butoxycarbonylamphetamine]",Detection in rat urine (LC–QToF–MS),[1],not detected
same,Detection after incubation of BocMA (LC–QToF–MS),[2],produced
"CC(NC(=O)OC(C)(C)C)C(=O)c1ccccc1 (centres unmarked) [M4, N-tert-butoxycarbonyl-2-amino-1-phenylpropan-1-one]",Detection in rat urine (LC–QToF–MS),[1],not detected
same,Detection after incubation of BocMA (LC–QToF–MS),[2],produced
same,Detection after incubation of BocMA (LC–QToF–MS),[3],detected
same,Incubation time at which peak intensity was highest,[3],20 min
"CNC(C)Cc1ccc(O)cc1 (centres unmarked) [4OHMA, 4-hydroxy methamphetamine, reference compound]",Detection in rat urine (LC–QToF–MS),[1],not detected
same,Detection after incubation of BocMA (LC–QToF–MS),[2],not detected
same,Detection after incubation of BocMA (LC–QToF–MS),[3],not detected
CC1N(C)C(O)(OC(C)(C)C)OC1(O)c1ccccc1 (centres unmarked) [M6],Detection in rat urine (LC–QToF–MS),[1],not detected
same,Detection after incubation of BocMA (LC–QToF–MS),[2],produced
same,Detection after incubation of BocMA (LC–QToF–MS),[3],detected
same,Incubation time at which peak intensity was highest,[3],13 min
CC(NC(=O)OC(C)(C)C)C(O)c1ccccc1 (centres unmarked) [Boc-protected nor-ephedrine],Detection after incubation of BocMA (LC–QToF–MS),[2],not detected
same,Detection after incubation of BocMA (LC–QToF–MS),[3],not detected
"CC(C(O)c1ccccc1)N(C)C(=O)OC(C)(C)C (single isomer, unassigned) [M1–D1, N-tert-butoxycarbonylephedrine]",M1–D1 absolute amount in urine after hydrolysis,"[1]; rat no. 1, urine 0–4 h",0.69 ng
same,M1–D1 concentration in urine after hydrolysis,"[1]; rat no. 1, urine 0–4 h",0.46 ng/mL
same,M1–D1 concentration in urine before hydrolysis,"[1]; rat no. 1, urine 0–4 h",0.47 ng/mL
same,M1–D1 absolute amount in urine after hydrolysis,"[1]; rat no. 1, urine 0–72 h total",57 ng
same,M1–D1 absolute amount in urine after hydrolysis,"[1]; rat no. 1, urine 4–8 h",54 ng
same,M1–D1 concentration in urine after hydrolysis,"[1]; rat no. 1, urine 4–8 h",54 ng/mL
same,M1–D1 concentration in urine before hydrolysis,"[1]; rat no. 1, urine 4–8 h",0.51 ng/mL
same,M1–D1 absolute amount in urine after hydrolysis,"[1]; rat no. 2, urine 0–4 h",10 ng
same,M1–D1 concentration in urine after hydrolysis,"[1]; rat no. 2, urine 0–4 h",5.2 ng/mL
same,M1–D1 concentration in urine before hydrolysis,"[1]; rat no. 2, urine 0–4 h",6.5 ng/mL
same,M1–D1 absolute amount in urine after hydrolysis,"[1]; rat no. 2, urine 0–72 h total",260 ng
same,M1–D1 absolute amount in urine after hydrolysis,"[1]; rat no. 2, urine 4–8 h",180 ng
same,M1–D1 concentration in urine after hydrolysis,"[1]; rat no. 2, urine 4–8 h",89 ng/mL
same,M1–D1 concentration in urine before hydrolysis,"[1]; rat no. 2, urine 4–8 h",3.0 ng/mL
same,M1–D1 absolute amount in urine after hydrolysis,"[1]; rat no. 2, urine 8–24 h",72 ng
same,M1–D1 concentration in urine after hydrolysis,"[1]; rat no. 2, urine 8–24 h",4.8 ng/mL
same,M1–D1 concentration in urine before hydrolysis,"[1]; rat no. 2, urine 8–24 h",3.0 ng/mL
same,M1–D1 absolute amount in urine after hydrolysis,"[1]; rat no. 3, urine 0–4 h",70 ng
same,M1–D1 concentration in urine after hydrolysis,"[1]; rat no. 3, urine 0–4 h",140 ng/mL
same,M1–D1 concentration in urine before hydrolysis,"[1]; rat no. 3, urine 0–4 h",50 ng/mL
same,M1–D1 absolute amount in urine after hydrolysis,"[1]; rat no. 3, urine 0–72 h total",1500 ng
same,M1–D1 absolute amount in urine after hydrolysis,"[1]; rat no. 3, urine 4–8 h",440 ng
same,M1–D1 concentration in urine after hydrolysis,"[1]; rat no. 3, urine 4–8 h",220 ng/mL
same,M1–D1 concentration in urine before hydrolysis,"[1]; rat no. 3, urine 4–8 h",3.2 ng/mL
same,M1–D1 absolute amount in urine after hydrolysis,"[1]; rat no. 3, urine 8–24 h",860 ng
same,M1–D1 concentration in urine after hydrolysis,"[1]; rat no. 3, urine 8–24 h",86 ng/mL
same,M1–D1 absolute amount in urine after hydrolysis,"[1]; rat no. 3, urine 24–48 h",88 ng
same,M1–D1 concentration in urine after hydrolysis,"[1]; rat no. 3, urine 24–48 h",11 ng/mL
same,M1–D1 absolute amount in urine after hydrolysis,"[1]; rat no. 3, urine 48–72 h",6.4 ng
same,M1–D1 concentration in urine after hydrolysis,"[1]; rat no. 3, urine 48–72 h",0.71 ng/mL
same,Detection after incubation of BocMA (LC–QToF–MS),[2],produced
same,Share of the degraded products detected as this metabolite,[2],10%
same,Detection after incubation of BocMA (LC–QToF–MS),[3],detected
same,Share of the degraded products detected as this metabolite,[3],5%
"C[C@@H](Cc1ccc(O)cc1)N(C)C(=O)OC(C)(C)C [M3, N-tert-butoxycarbonyl-4-hydroxymethamphetamine]",Detection in rat urine (LC–QToF–MS),[1],trace amount of M3 was detected only in the urine collected during 0–4 h from Rat No. 3
same,Detection after incubation of BocMA (LC–QToF–MS),[2],produced
"CC(N)Cc1ccc(O)cc1 (centres unmarked) [4OHAP, 4-hydroxy amphetamine, reference compound]",Detection in rat urine (LC–QToF–MS),[1],not detected
same,Detection after incubation of BocMA (LC–QToF–MS),[2],not detected
same,Detection after incubation of BocMA (LC–QToF–MS),[3],not detected
CC(C(O)c1ccccc1)N(C)C(=O)OC(C)(C)C (centres unmarked) [M1],M1 diastereomer ratio (R = M1–D1/M1–D2),"[1]; in vivo, rat urine",≥ 1
same,Detection in rat urine (LC–QToF–MS),[1],detected in urine from all rats
same,Share of the degraded products detected as this metabolite,[2],14%
same,Incubation time at which peak intensity was highest,[3],3 min
same,Share of the degraded products detected as this metabolite,[3],45%
same,Share of the degraded products detected as this metabolite,"[3]; listed as M1 (D1, 2)",~45%
"CC(C(=O)c1ccccc1)N(C)C(=O)OC(C)(C)C (centres unmarked) [BocMC, N-tert-butoxycarbonyl-2-(methylamino)-1-phenylpropan-1-one, reference compound]",Detection after incubation of BocMA (LC–QToF–MS),[2],not detected
same,Detection after incubation of BocMA (LC–QToF–MS),[3],not detected
"CN[C@@H](C)Cc1ccccc1 [MA, Methamphetamine]",Detection in rat urine (LC–QToF–MS),[1],not detected
same,Detection after incubation of BocMA (LC–QToF–MS),[2],not detected
same,Share of the administered amount excreted in urine,[4],about 80%
same,Detection after incubation of BocMA (LC–QToF–MS),[3],not detected
"CC(C(O)c1ccccc1)N(C)C(=O)OC(C)(C)C (single isomer, unassigned) [M1–D2, N-tert-butoxycarbonylpseudoephedrine]",M1–D2 absolute amount in urine after hydrolysis,"[1]; average of 3 rats, urine 0–72 h total",85 ng
same,M1–D2 absolute amount in urine after hydrolysis,"[1]; rat no. 1, urine 0–4 h",7.8 ng
same,M1–D2 concentration in urine after hydrolysis,"[1]; rat no. 1, urine 0–4 h",5.2 ng/mL
same,M1–D2 concentration in urine before hydrolysis,"[1]; rat no. 1, urine 0–4 h",1.5 ng/mL
same,M1–D2 absolute amount in urine after hydrolysis,"[1]; rat no. 1, urine 0–72 h total",43 ng
same,M1–D2 absolute amount in urine after hydrolysis,"[1]; rat no. 1, urine 4–8 h",35 ng
same,M1–D2 concentration in urine after hydrolysis,"[1]; rat no. 1, urine 4–8 h",35 ng/mL
same,M1–D2 concentration in urine before hydrolysis,"[1]; rat no. 1, urine 4–8 h",0.67 ng/mL
same,M1–D2 absolute amount in urine after hydrolysis,"[1]; rat no. 2, urine 0–4 h",24 ng
same,M1–D2 concentration in urine after hydrolysis,"[1]; rat no. 2, urine 0–4 h",12 ng/mL
same,M1–D2 concentration in urine before hydrolysis,"[1]; rat no. 2, urine 0–4 h",12 ng/mL
same,M1–D2 absolute amount in urine after hydrolysis,"[1]; rat no. 2, urine 0–72 h total",52 ng
same,M1–D2 absolute amount in urine after hydrolysis,"[1]; rat no. 2, urine 4–8 h",28 ng
same,M1–D2 concentration in urine after hydrolysis,"[1]; rat no. 2, urine 4–8 h",14 ng/mL
same,M1–D2 concentration in urine before hydrolysis,"[1]; rat no. 2, urine 4–8 h",1.0 ng/mL
same,M1–D2 absolute amount in urine after hydrolysis,"[1]; rat no. 3, urine 0–4 h",50 ng
same,M1–D2 concentration in urine after hydrolysis,"[1]; rat no. 3, urine 0–4 h",100 ng/mL
same,M1–D2 concentration in urine before hydrolysis,"[1]; rat no. 3, urine 0–4 h",8.1 ng/mL
same,M1–D2 absolute amount in urine after hydrolysis,"[1]; rat no. 3, urine 0–72 h total",160 ng
same,M1–D2 absolute amount in urine after hydrolysis,"[1]; rat no. 3, urine 4–8 h",66 ng
same,M1–D2 concentration in urine after hydrolysis,"[1]; rat no. 3, urine 4–8 h",33 ng/mL
same,M1–D2 concentration in urine before hydrolysis,"[1]; rat no. 3, urine 4–8 h",1.5 ng/mL
same,M1–D2 absolute amount in urine after hydrolysis,"[1]; rat no. 3, urine 8–24 h",42 ng
same,M1–D2 concentration in urine after hydrolysis,"[1]; rat no. 3, urine 8–24 h",4.2 ng/mL
same,Detection after incubation of BocMA (LC–QToF–MS),[2],produced
same,Share of the degraded products detected as this metabolite,[2],4%
same,Detection after incubation of BocMA (LC–QToF–MS),[3],detected
same,Share of the degraded products detected as this metabolite,[3],40%
"CC(N)Cc1ccccc1 (centres unmarked) [AP, amphetamine]",Detection in rat urine (LC–QToF–MS),[1],not detected
same,Detection after incubation of BocMA (LC–QToF–MS),[3],not detected
CC(NC(=O)OC(C)(C)COC1OC(C(=O)O)C(O)C(O)C1O)C(=O)c1ccccc1 (centres unmarked) [M9],Urine collection interval with the highest ion peak intensity,[1]; rat urine,4 to 8 h
same,Detection in rat urine (LC–QToF–MS),[1],detected in all rat urine collected until 72 h
C[C@H](NC(=O)OC(C)(C)CO)C(=O)c1ccccc1 [M5],Urine collection interval with the highest ion peak intensity,[1]; rat urine,4 to 8 h
same,Increase of peak intensity after hydrolysis,"[1]; rat urine, β-glucuronidase hydrolysis",approximately tenfold
same,Detection in rat urine (LC–QToF–MS),[1],detected in urine from all rats
same,Detection after incubation of BocMA (LC–QToF–MS),[2],produced
same,Detection after incubation of BocMA (LC–QToF–MS),[3],detected
same,Incubation time at which peak intensity was highest,[3],60 min

# Reference: PMC9715518, “Human and rat microsomal metabolites of N-tert-butoxycarbonylmethamphetamine and its urinary metabolites in rat” (Forensic Toxicology, 2021)
